# Assay results reported in publication PMC10907753 (Communications Biology, 2024).
# “And” between values parts separate entries of the source, which are not always exact repeats. Equal values may be shown once. Read-outs that look alike come from different tables or passages of the source.
# Experiments:
# Xcc NAMPT [1] = biological target: T1, Xcc NAMPT (Xanthomonas campestris pv. campestris, UniProt A0A0H2X5R2); assay: NAMPT enzyme activity, fluorometric NMN assay (kinetic constants); assay type: biochemical
# Experimental: (§1) To ensure the reliability of the results, all assays were performed multiple times. NAMPT enzyme activity was assessed using a chemical approach that converted NMN into a fluorescent derivative, in accordance with established protocols[15],[30].
# (§2) The enzymatic reactions were carried out for 15 min at 37 °C, and the quantification of NMN was achieved using the fluorescence method. Briefly, the sample containing NMN (25 μl) was mixed with 10 μl of 20% acetophenone (200 μl acetophenone dissolved in 800 μl DMSO) and 10 μl of 2 M KOH. The mixture was then incubated on ice for 10 minutes before adding 45 μl of 100% formic acid. The resulting mixture was incubated at 37 °C for 15 min. Samples (40 μl) were then transferred to a 384-well plate, and fluorescence intensity was measured using the Victor Nivo Multimode plate reader (Perkin Elmer), with excitation and emission wavelengths set at 355/40 and 435/20 nm, respectively.
# Correspondingly, the additions of 20% acetophenone, 2 M KOH, and 100% formic acid were adjusted proportionally. The resulting final samples (120 μl) were transferred to 96-well plates, and the fluorescence values were measured following the same procedure as described earlier.
# (§3) The kinetic data was analyzed using Graphpad Prism 8. To determine the hill coefficients, substrate-velocity curves were analyzed by nonlinear regression with an allosteric sigmoidal model using the equation v = Vmax S^h/(Km^h + S^h).
# Xcc NAMPT [2] = biological target: T1, Xcc NAMPT; assay: Determination of IC50 value for FK866; assay type: biochemical
# Xcc NAMPT [3] = biological target: T1, Xcc NAMPT; assay: biochemical
# [4] = tested on: Xcc ΔNamptΔNads (XC_0719 and XC_1067 double deletion mutant); assay type: cell-based, Xanthomonas campestris pv. campestris; settings: 0.1 mM supplement, 28 °C
# Experimental: The bacterium Xcc was grown in NYG medium at 28 °C and shaked at 200 rpm for 16–18 h. Once the cells had grown to a point where OD600 reached 1.0, they were harvested via centrifugation and washed twice with MMX medium. Following this, a volume of 0.1 ml of the cell suspension was added to 5 ml of fresh MMX medium. […] The culture was grown at 28 °C and the OD600 values were measured every 12 h. The experiments were repeated at least three times to ensure consistency.
# Xcc NAMPT [5] = biological target: T1, Xcc NAMPT; settings: read-out: Kd2; ITC, 25 mM NAM into 30 μM NAMPT, sequential binding sites model, second site
# [6] = biological target: Xcc NAMPT with ATP pretreatment (Xanthomonas campestris pv. campestris, UniProt A0A0H2X5R2); settings: ITC after ATP treatment, sequential binding
# Experimental: Proteins pretreated with ATP were prepared by incubating 1 μM protein and 1 mM ATP at 25 °C for 30 min. […] The ATP was subsequently removed by gel filtration using the Superdex 200 Increase 10/300 GL column. The final concentrations of proteins were measured by Nanodrop.
# figure presented is a representative sample from three separate experiments. A
# sequential binding sites model was used to fit the binding curves, yielding the
# dissociation constant (Kd) and the stoichiometry (N) of the binding reaction.
# (1 picture or pasted object on this page, not shown here)
# [7] = biological target: R373A+R180A mutant pair of Xcc NAMPT (Xanthomonas campestris pv. campestris, UniProt A0A0H2X5R2, R180A/R373A); assay: NAMPT enzyme activity, fluorometric NMN assay (kinetic constants); assay type: biochemical
# Experimental: as §2
# . Correspondingly, the additions of 20% acetophenone, 2 M KOH, and 100% formic acid were adjusted proportionally. The resulting final samples (120 μl) were transferred to 96-well plates, and the fluorescence values were measured following the same procedure as described earlier.
# as §3
# Fig. S9 Substrate-velocity curve for the R373A+R180A mutant pair of Xcc
# of 0.3 nM mutant pair was used.
# μM. The error bars depicted on the plot indicate the standard deviation of
# measurements taken from three replicates.
# [8] = biological target: Xcc NAMPT H175F-I224F-V291F-I332F quadruple mutant (Xanthomonas campestris pv. campestris, UniProt A0A0H2X5R2, H175F/I224F/I332F/V291F); assay type: biochemical; settings: for Km / kcat: 3.5 nM quadruple mutant
# Experimental: as §1, §2
# The kinetic data was analyzed using Graphpad Prism 8. To determine the hill coefficients, substrate-velocity curves were analyzed by nonlinear regression with an allosteric sigmoidal model using the equation v = Vmax S^h/(Km^h + S^h). […]
# mutant. c-d Michaelis–Menten plots for the tunnel-blocked quadruple mutant of Xcc […]
# To determine the kinetic parameters of quadruple mutant, a concentration of 3.5 nM mutant was used. […]
# human NAMPT [9] = biological target: T2, human NAMPT (Homo sapiens, UniProt P43490); settings: human NAMPT for NAM; cited from earlier work
# human NAMPT [10] = biological target: T2, human NAMPT; assay: NAMPT enzyme activity, fluorometric NMN assay (kinetic constants); assay type: biochemical; settings: 30 nM human NAMPT, PRPP 3 to 50 μM
# Experimental: To determine the kinetic parameters of human NAMPT, a concentration of 30 nM His-tagged human NAMPT was used. […] The remaining conditions were kept the same as those employed in the Xcc NAMPT reaction system.
# as §2, §3
# human NAMPT [11] = biological target: T2, human NAMPT; settings: NAMPT activators; cited from earlier work
# [12] = substrate of Xcc NAMPT, 37 °C, Michaelis-Menten fit
# [13] = FK866 0.4 nM, E=0.4 nM, replicates
# [14] = 0.3 nM mutant pair, NAM 0.1 to 4 μM
# T2 sequence (P43490 whole entry): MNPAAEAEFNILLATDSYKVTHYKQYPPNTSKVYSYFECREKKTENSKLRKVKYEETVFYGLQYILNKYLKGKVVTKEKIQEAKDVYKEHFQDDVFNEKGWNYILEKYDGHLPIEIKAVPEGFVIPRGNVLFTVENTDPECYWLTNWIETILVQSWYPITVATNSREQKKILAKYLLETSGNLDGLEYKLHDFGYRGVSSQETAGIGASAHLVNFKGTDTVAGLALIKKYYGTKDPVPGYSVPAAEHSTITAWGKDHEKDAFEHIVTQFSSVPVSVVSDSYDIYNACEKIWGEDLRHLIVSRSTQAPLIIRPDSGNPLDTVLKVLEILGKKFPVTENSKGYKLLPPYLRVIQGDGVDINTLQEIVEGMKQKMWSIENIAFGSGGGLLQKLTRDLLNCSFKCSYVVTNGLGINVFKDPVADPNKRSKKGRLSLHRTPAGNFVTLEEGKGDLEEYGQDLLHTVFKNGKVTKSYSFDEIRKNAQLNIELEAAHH
structure (smiles),measurement,setting,value
Nc1ncnc2c1ncn2[C@@H]1O[C@H](COP(=O)(O)OP(=O)(O)OP(=O)(O)O)[C@@H](O)[C@H]1O [ATP],Km,Xcc NAMPT [1],560 ± 60 µM
same,kcat,Xcc NAMPT [1]; [12],4.40 ± 0.16 s⁻¹
O=C(/C=C/c1cccnc1)NCCCCC1CCN(C(=O)c2ccccc2)CC1 [FK866],IC50,Xcc NAMPT [2],0.00023 µM
same,Activity %,"Xcc NAMPT [2]; FK866 0.02 nM, E=0.4 nM, replicates",99.2204% and 100.986% and 94.6063% and 98.6899%
same,Activity %,"Xcc NAMPT [2]; FK866 0.04 nM, E=0.4 nM, replicates",101.785% and 102.935% and 85.505% and 97.238%
same,Activity %,"Xcc NAMPT [2]; FK866 0.1 nM, E=0.4 nM, replicates",78.2474% and 70.3189% and 72.1819% and 76.3149%
same,Activity %,"Xcc NAMPT [2]; FK866 0.2 nM, E=0.4 nM, replicates",62.8959% and 69.0568% and 55.7537% and 65.4354%
same,Activity %,Xcc NAMPT [2]; [13],17.7119% and 13.8804% and 14.6162%
same,activity at 0.0004 µM,Xcc NAMPT [2]; [13],14.2%
same,Activity %,"Xcc NAMPT [2]; FK866 1 nM, E=0.4 nM, replicates",4.02% and 4.725% and 5.923% and 4.615%
same,Activity %,"Xcc NAMPT [2]; FK866 2 nM, E=0.4 nM, replicates",1.856% and 4.769% and 2.139% and 3.338%
same,Kd,Xcc NAMPT [3],0.0822 µM
"O=C(O)c1cccnc1 [NA, nicotinic acid]",growth of ΔNamptΔNads in MMX with supplement,[4],did not grow
"NC(=O)c1ccc[n+]([C@@H]2O[C@H](COP(=O)([O-])OP(=O)(O)OC[C@H]3O[C@@H](n4cnc5c(N)ncnc54)[C@H](O)[C@@H]3O)[C@@H](O)[C@H]2O)c1 [NAD+, nicotinamide adenine dinucleotide]",growth of ΔNamptΔNads in MMX with supplement,[4],able to grow
"NC(=O)c1cccnc1 [NAM, nicotinamide]",Kd,Xcc NAMPT [5],21000 µM
same,Kd,[6]; read-out: Kd (first binding site),330 µM
same,Kd,[6]; read-out: Kd (second binding site),2990 µM
same,Km,[7]; [14],0.08 ± 0.01 µM
same,kcat,[7]; [14],0.188 ± 0.005 s⁻¹
same,hill coefficient (H),"[7]; mutant pair, NAM",1.64 ± 0.32 and 1.64
same,hill coefficient,"Xcc NAMPT [1]; NAM substrate-velocity curve, allosteric sigmoidal model",~ 1.98
same,Km,[8],7.33 ± 0.66 µM
same,kcat,[8],0.55 ± 0.02 s⁻¹
same,hill coefficient,"[8]; NAM, quadruple mutant",1.00
same,Km,human NAMPT [9],0.005 ± 0.002 µM
same,growth of ΔNamptΔNads in MMX with supplement,[4],did not grow
same,Kd,Xcc NAMPT [3],1410 µM
"NC(=O)c1ccc[n+]([C@@H]2O[C@H](CO)[C@@H](O)[C@H]2O)c1 [NmR, nicotinamide riboside]",growth of ΔNamptΔNads in MMX with supplement,[4],did not grow
O=P(O)(O)OC[C@H]1O[C@H](OP(=O)(O)OP(=O)(O)O)[C@H](O)[C@@H]1O [PRPP],kcat,human NAMPT [10],0.045 ± 0.001 s⁻¹
same,Km,"human NAMPT [10]; 2.5 mM ATP, 10 μM NAM",5.41 ± 0.58 µM
same,Km,Xcc NAMPT [1]; [12],24.4 ± 6.26 µM
same,kcat,Xcc NAMPT [1]; [12],6.99 ± 0.56 s⁻¹
same,kcat,[8],0.44 ± 0.01 s⁻¹
same,Km,[8]; read-out: Km,9.56 ± 1.14 µM
same,fold decrease in Km,[8]; quadruple mutant vs wild-type,2.55 fold
same,fold decrease in catalytic efficiency,[8]; quadruple mutant vs wild-type,about 5.80 fold
same,fold decrease in kcat,[8]; quadruple mutant vs wild-type,15.89 fold
O=C(NCc1ccncc1)Nc1ccc(S(=O)(=O)N2CC3CCC(C2)O3)cc1 [SBI-797812],effect on the enzymatic activity of human NAMPT,human NAMPT [11],almost double
